In publication PMC7368294 (Proceedings of the National Academy of Sciences of the …, 2020):
Where two headings read alike, the source gives them in different places.

Assays:
Experiment in all cases: cell-based
Parameters in all cases: species or system Xenopus laevis oocytes
Details in all cases: Oocyte
Dα1/Dβ1 nAChR = target: T1, Dα1/Dβ1 nAChR (Drosophila melanogaster, UniProt P04755+P09478)
T1 sequence (P09478 22-567): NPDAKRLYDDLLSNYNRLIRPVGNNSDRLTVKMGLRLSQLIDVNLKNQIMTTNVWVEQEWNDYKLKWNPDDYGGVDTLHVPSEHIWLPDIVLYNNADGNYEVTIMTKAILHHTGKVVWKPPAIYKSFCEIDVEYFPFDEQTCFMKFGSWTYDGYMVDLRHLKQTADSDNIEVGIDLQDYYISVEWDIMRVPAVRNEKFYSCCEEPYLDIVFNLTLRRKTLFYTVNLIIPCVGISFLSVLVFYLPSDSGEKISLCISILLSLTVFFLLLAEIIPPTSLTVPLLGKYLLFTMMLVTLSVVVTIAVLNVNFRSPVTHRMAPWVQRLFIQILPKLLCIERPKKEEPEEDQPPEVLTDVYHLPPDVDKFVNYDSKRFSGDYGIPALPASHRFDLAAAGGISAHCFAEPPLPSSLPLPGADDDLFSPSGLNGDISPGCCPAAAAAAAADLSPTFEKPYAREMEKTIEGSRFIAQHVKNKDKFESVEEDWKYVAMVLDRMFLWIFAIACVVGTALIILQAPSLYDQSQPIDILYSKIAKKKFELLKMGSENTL
T1 sequence (P04755 25-521): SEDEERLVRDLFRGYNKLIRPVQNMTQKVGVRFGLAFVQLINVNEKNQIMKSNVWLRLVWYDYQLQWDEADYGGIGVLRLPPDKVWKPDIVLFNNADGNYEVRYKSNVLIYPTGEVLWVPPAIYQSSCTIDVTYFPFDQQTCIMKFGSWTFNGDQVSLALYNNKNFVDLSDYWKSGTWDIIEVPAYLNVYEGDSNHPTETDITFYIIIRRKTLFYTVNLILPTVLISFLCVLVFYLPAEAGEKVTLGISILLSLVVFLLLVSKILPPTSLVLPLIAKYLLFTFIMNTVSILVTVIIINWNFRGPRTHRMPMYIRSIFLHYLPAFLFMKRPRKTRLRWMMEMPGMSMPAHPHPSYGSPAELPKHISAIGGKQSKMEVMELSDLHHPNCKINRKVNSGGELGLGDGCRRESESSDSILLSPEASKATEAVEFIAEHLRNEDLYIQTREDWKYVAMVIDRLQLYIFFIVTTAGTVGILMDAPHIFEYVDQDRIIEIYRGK

Dα1/Dα2/Dβ1/Dβ2 nAChR = Dα1/Dα2/Dβ1/Dβ2 nAChR (Drosophila melanogaster, UniProt P04755+P09478+P17644+P25162)
Dα1/Dα2/Dβ1 nAChR = target: T2, Dα1/Dα2/Dβ1 nAChR (Drosophila melanogaster, UniProt P04755+P09478+P17644)
T2 sequence (P09478 22-567): T1 sequence (P09478 22-567)
T2 sequence (P17644 22-576): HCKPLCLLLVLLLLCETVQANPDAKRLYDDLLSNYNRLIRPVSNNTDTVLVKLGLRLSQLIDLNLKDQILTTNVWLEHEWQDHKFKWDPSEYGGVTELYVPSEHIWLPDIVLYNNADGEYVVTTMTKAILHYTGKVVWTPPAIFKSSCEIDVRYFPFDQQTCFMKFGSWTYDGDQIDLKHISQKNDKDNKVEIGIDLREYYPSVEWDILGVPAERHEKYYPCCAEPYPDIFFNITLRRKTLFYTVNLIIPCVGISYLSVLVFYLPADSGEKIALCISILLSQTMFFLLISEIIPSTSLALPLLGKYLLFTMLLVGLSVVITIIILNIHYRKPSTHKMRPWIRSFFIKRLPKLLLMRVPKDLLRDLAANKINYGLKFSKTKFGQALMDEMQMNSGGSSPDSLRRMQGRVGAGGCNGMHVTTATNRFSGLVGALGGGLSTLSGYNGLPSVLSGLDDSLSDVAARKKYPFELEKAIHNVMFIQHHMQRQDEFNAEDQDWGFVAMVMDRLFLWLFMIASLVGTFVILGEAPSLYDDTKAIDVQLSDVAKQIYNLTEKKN
T2 sequence (P04755 25-521): T1 sequence (P04755 25-521)

N#C/N=C1\SCCN1Cc1ccc(Cl)nc1 [thiacloprid]
Emax (Dα1/Dβ1 nAChR; read-out: Thiacloprid / Imax): 6.5 ± 0.5% | Emax (Dα1/Dα2/Dβ1/Dβ2 nAChR; read-out: Thiacloprid / Imax): 45.4 ± 1.9% | Emax (Dα1/Dα2/Dβ1 nAChR; read-out: Thiacloprid / Imax): 2 ± 0.2%

CN/C(=N\[N+](=O)[O-])NCc1cnc(Cl)s1 [clothianidin]
Emax (Dα1/Dβ1 nAChR; read-out: Clothianidin / Imax): 29.6 ± 1.3% | Emax (Dα1/Dα2/Dβ1/Dβ2 nAChR; read-out: Clothianidin / Imax / ND): 82.1 ± 1.7% | Emax (Dα1/Dα2/Dβ1 nAChR; read-out: Clothianidin / Imax): 46.7 ± 2.1%

O=[N+]([O-])NC1=NCCN1Cc1ccc(Cl)nc1 [imidacloprid]
Emax (Dα1/Dβ1 nAChR; read-out: Imidacloprid / Imax): 11.2 ± 0.9% | Emax (Dα1/Dα2/Dβ1/Dβ2 nAChR; read-out: Imidacloprid / Imax): 59.2 ± 3% | Emax (Dα1/Dα2/Dβ1 nAChR; read-out: Imidacloprid / Imax): 4.6 ± 0.4%
